Series [1] relates to tetanus toxoid. The experiment in a line: Tetanus toxoid remaining in supernatant after stirring with octadecyl tyrosine. The class given is physicochemical. The settings on record: pH 7.0, 24 hours room temperature. As to the method: Tetanus toxoid solution (10 ml, 30 Lf/ml, pH 7.0) was placed in a container with a magnetic stirring bar. An ether solution of octadecyl tyrosine (0.3 ml, 30 mg/ml) was added, the mixture stirred rapidly and the ether removed under vacuum. The resulting cloudy solution was stirred at room temperature for 24 hours.
To tetanus toxoid solution (10 ml, 30 Lf/ml, pH 7.0) was added dry octadecyl tyrosine base (10 mg) and the mixture stirred for 24 hours at room temperature.

Series [2] relates to tetanus toxoid. Further details: species or system guinea pigs. The settings on record: guinea pig, in vivo, sc.
Series [3] concerns guinea pigs which had been sensitized to tetanus toxoid. The settings on record: guinea pig, in vivo.

The values below come from patent publication US4258029A, “Synthetic adjuvants for stimulation of antigenic responses” (Connaught Laboratories Limited, priority 1979, dated 1981).

Regarding `CCCCCCCCCCCCCCCCCCOC(=O)[C@@H](N)Cc1ccc(O)cc1` [octadecyl tyrosine], the “tetanus toxoid in supernatant, Procedure B” value in series [1] (dry base 10 mg added to 10 ml toxoid 30 Lf/ml) is reported as “no detectable tetanus toxoid”. For the same compound, the “tetanus toxoid in supernatant, Procedure A” value in series [1] (ether solution 0.3 ml, 30 mg/ml added to 10 ml toxoid 30 Lf/ml, after centrifuging) was “no detectable tetanus toxoid”.

As to Tetanus Toxoid, in series [2], the “Antibody Units/ml, 4 Weeks” value is recorded as 1.39 ± 0.2 Units/ml and the “Antibody Units/ml, 61/2 weeks” value was 7.2 ± 1.2 Units/ml. Besides, the “Diameter of skin reaction” value in series [3] was determined as 17 ± 1.47 mm.
